Patent US8309718B2, “4-pyrazolyl-N-arylpyrimidin-2-amines and 4-pyrazolyl-N-heteroarylpyrimidin-2-amines as janus kinase inhibitors” (Incyte Corporation, priority 2007, dated 2012)

These compounds were tested against T1, human JAK2 (Homo sapiens, UniProt O60674) (assay: In vitro JAK kinase assay (HTRF, phosphorylation of biotinylated peptide)). Conditions: catalytic domain a.a. 828-1132, 30 μM ATP, 500 nM peptide, room temperature 1 hr; read-out: JAK-2 IC50.
T1 construct: JAK2 (a.a. 828-1132); His tag (N); made in house; host or cells: insect cells (baculovirus)
Assay type: biochemical
Method in brief: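 IC50 from HTRF detection (Eu-Py20 antibody, SA-APC) of biotinylated-peptide phosphorylation (500 nM), run 1 h at RT. Enzyme: N-His human JAK2 kinase domain a.a. 828-1132 from insect cells; ATP 30 μM; buffer 50 mM Tris pH 7.8 with NaCl, DTT, BSA.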

T1 sequence (O60674 828-1132): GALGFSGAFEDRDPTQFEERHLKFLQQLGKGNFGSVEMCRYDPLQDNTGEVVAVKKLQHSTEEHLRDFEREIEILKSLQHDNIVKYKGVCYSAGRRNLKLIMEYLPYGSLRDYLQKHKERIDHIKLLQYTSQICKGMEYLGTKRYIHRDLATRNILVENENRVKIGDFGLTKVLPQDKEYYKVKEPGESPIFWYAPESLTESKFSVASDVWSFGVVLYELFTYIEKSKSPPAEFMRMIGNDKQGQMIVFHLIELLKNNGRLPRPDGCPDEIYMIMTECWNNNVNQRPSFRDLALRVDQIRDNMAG

| SMILES | IC50 |
| --- | --- |
| CCS(=O)(=O)N1CC(CC#N)(n2cc(-c3ccnc(Nc4ccc(C(=O)N5CCC(N(C)C)C5)cc4)n3)cn2)C1 (racemic) [Example 282, 2-(3-(4-(2-(4-(3-(dimethylamino)pyrrolidine-1-carbonyl)phenylamino)pyrimidin-4-yl)-1H-pyrazol-1-yl)-1-(ethylsulfonyl)azetidin-3-yl)acetonitrile] | < 0.1 µM |
| N#CCC1(n2cc(-c3ccnc(Nc4ccc(-n5cccn5)cc4)n3)cn2)CC(C#N)C1 (single isomer, unassigned) [Example 341, 3-(cyanomethyl)-3-[4-(2-{[4-(1H-pyrazol-1-yl)phenyl]amino}pyrimidin-4-yl)-1H-pyrazol-1-yl]cyclobutanecarbonitrile] | < 0.1 µM |
| N#CCC(C1CCCC1)n1cc(-c2ccnc(Nc3cccc(C(=O)NC4(CO)CCCC4)c3)n2)cn1 (racemic) [Example 165, 3-(4-(1-(2-cyano-1-cyclopentylethyl)-1H-pyrazol-4-yl)pyrimidin-2-ylamino)-N-(1-(hydroxymethyl)cyclopentyl)benzamide] | < 0.1 µM |
| N#CCC(C1CCCC1)n1cc(-c2ccnc(Nc3ccc(NC(=O)CN4CCCC4)cc3)n2)cn1 (racemic) [Example 203, N-(4-(4-(1-(2-cyano-1-cyclopentylethyl)-1H-pyrazol-4-yl)pyrimidin-2-ylamino)phenyl)-2-(pyrrolidin-1-yl)acetamide] | < 0.1 µM |
| N#CCC(C1CCCC1)n1cc(-c2ccnc(Nc3ccc(C(=O)N4[C@@H]5CC[C@H]4C[C@@H](O)C5)cc3)n2)cn1 (mixture of isomers) [Example 215, 3-cyclopentyl-3-(4-(2-(4-((3-endo)-3-hydroxy-8-azabicyclo[3.2.1]octane-8-carbonyl)phenylamino)pyrimidin-4-yl)-1H-pyrazol-1-yl)propanenitrile] | < 0.1 µM |
| N#CCC(C1CCCC1)n1cc(-c2ccnc(Nc3ccc(NS(=O)(=O)c4ccc(Cl)s4)cc3)n2)cn1 (racemic) [Example 196, 5-chloro-N-(4-(4-(1-(2-cyano-1-cyclopentylethyl)-1H-pyrazol-4-yl)pyrimidin-2-ylamino)phenyl)thiophene-2-sulfonamide] | < 0.1 µM |
| N#CCC(C1CC1)n1cc(-c2ccnc(Nc3ccc(C(=O)N4[C@@H]5CC[C@H]4C[C@@H](O)C5)cc3)n2)cn1 (mixture of isomers) [Example 252, 3-cyclopropyl-3-(4-(2-(4-((3-endo)-3-hydroxy-8-azabicyclo[3.2.1]octane-8-carbonyl)phenylamino)pyrimidin-4-yl)-1H-pyrazol-1-yl)propanenitrile] | < 0.1 µM |
| COc1cnc(Nc2cccnc2)nc1-c1cnn(C(CC#N)CC2CCN(C(=O)c3ccc(F)cc3F)CC2)c1 (racemic) [Example 347, 4-[1-(2,4-difluorobenzoyl)piperidin-4-yl]-3-{4-[5-methoxy-2-(pyridin-3-ylamino)pyrimidin-4-yl]-1H-pyrazol-1-yl}butanenitrile] | < 0.1 µM |
| CC(=O)N[C@@H]1CCN(C(=O)c2ccc(Nc3nccc(-c4cnn(C(CC#N)C5CC5)c4)n3)cc2)C1 (mixture of isomers) [Example 268, N-((3R)-1-(4-(4-(1-(2-cyano-1-cyclopropylethyl)-1H-pyrazol-4-yl)pyrimidin-2-ylamino)benzoyl)pyrrolidin-3-yl)acetamide] | < 0.1 µM |
| CN1CCC(NC(=O)c2ccc(Nc3nccc(-c4cnn(C(CC#N)C5CCCC5)c4)n3)cc2)CC1 (racemic) [Example 227, 4-(4-(1-(2-cyano-1-cyclopentylethyl)-1H-pyrazol-4-yl)pyrimidin-2-ylamino)-N-(1-methylpiperidin-4-yl)benzamide] | < 0.1 µM |
| N#CCC1(n2cc(-c3ccnc(Nc4ccc(C(=O)N5CCC5)cc4)n3)cn2)CC(C#N)C1 (single isomer, unassigned) [Example 292, 3-(4-(2-(4-(azetidine-1-carbonyl)phenylamino)pyrimidin-4-yl)-1H-pyrazol-1-yl)-3-(cyanomethyl)cyclobutanecarbonitrile] | < 0.1 µM |
| N#CCC(C1CCCC1)n1cc(-c2ccnc(Nc3cccc(C(=O)N4CCC(O)(Cc5ccccc5)CC4)c3)n2)cn1 (racemic) [Example 151, 3-(4-(2-(3-(4-benzyl-4-hydroxypiperidine-1-carbonyl)phenylamino)pyrimidin-4-yl)-1H-pyrazol-1-yl)-3-cyclopentylpropanenitrile] | < 0.1 µM |
| Cn1ccc(S(=O)(=O)N2CCC(CC(CC#N)n3cc(-c4ccnc(Nc5ccc(C(N)=O)cc5)n4)cn3)CC2)n1 (racemic) [Example 47, 4-(4-(1-(1-cyano-3-(1-(1-methyl-1H-pyrazol-3-ylsulfonyl)piperidin-4-yl)propan-2-yl)-1H-pyrazol-4-yl)pyrimidin-2-ylamino)benzamide] | < 0.1 µM |
| CCS(=O)(=O)N1CCC(CC(CC#N)n2cc(-c3nc(Nc4ccccc4)ncc3C)cn2)CC1 (racemic) [Example 50, 4-(1-(ethylsulfonyl)piperidin-4-yl)-3-(4-(5-methyl-2-(phenylamino)pyrimidin-4-yl)-1H-pyrazol-1-yl)butanenitrile] | < 0.1 µM |
| N#CCC1(n2cc(-c3ccnc(Nc4ccc(N5CCCOC5=O)cc4)n3)cn2)CC(C#N)C1 (single isomer, unassigned) [Example 337, 3-(cyanomethyl)-3-[4-(2-{[4-(2-oxo-1,3-oxazinan-3-yl)phenyl]amino}pyrimidin-4-yl)-1H-pyrazol-1-yl]cyclobutanecarbonitrile] | < 0.1 µM |
| Cn1ccc(Nc2nccc(-c3cnn(C(CC#N)CC4CCN(C(=O)c5ccc(F)cc5F)CC4)c3)n2)n1 (racemic) [Example 8, 4-(1-(2,4-difluorobenzoyl)piperidin-4-yl)-3-(4-(2-(1-methyl-1H-pyrazol-3-ylamino)pyrimidin-4-yl)-1H-pyrazol-1-yl)butanenitrile] | < 0.1 µM |
| CCS(=O)(=O)N1CC(CC#N)(n2cc(-c3ccnc(Nc4ccc(C(=O)N5CCCC5)cc4)n3)cn2)C1 [Example 258, 2-(1-(ethylsulfonyl)-3-(4-(2-(4-(pyrrolidine-1-carbonyl)phenylamino)pyrimidin-4-yl)-1H-pyrazol-1-yl)azetidin-3-yl)acetonitrile] | < 0.1 µM |
| COc1cnc(Nc2cccc(C(=O)N3CCC(OC)CC3)c2)nc1-c1cnn(C(CC#N)C2CC2)c1 (racemic) [Example 330, 3-cyclopropyl-3-{4-[5-methoxy-2-({3-[(4-methoxypiperidin-1-yl)carbonyl]phenyl}amino)pyrimidin-4-yl]-1H-pyrazol-1-yl}propanenitrile] | < 0.1 µM |
| N#CCC(C1CCCC1)n1cc(-c2ccnc(Nc3ccc(C(=O)N4C5CC6CC4CC(C5)O6)cc3)n2)cn1 (racemic) [Example 216, 3-cyclopentyl-3-(4-(2-(4-(2-oxa-6-azatricyclo[3.3.1.1(3,7)]dec-6-ylcarbonyl)phenyl)aminopyrimidin-4-yl)-1H-pyrazol-1-yl)propanenitrile] | < 0.1 µM |

Further lines, results first:

| IC50 | SMILES |
| --- | --- |
| < 0.1 µM | Cc1cnc(Nc2ccc(N3CCNCC3)cc2)nc1-c1cnn(C(CC#N)C2CCCC2)c1 (racemic) [Example 78, 3-cyclopentyl-3-(4-(5-methyl-2-(4-(piperazin-1-yl)phenylamino)pyrimidin-4-yl)-1H-pyrazol-1-yl)propanenitrile] |
| < 0.1 µM | N#CCC(C1CCCC1)n1cc(-c2ccnc(Nc3cccc(-c4cnco4)c3)n2)cn1 (racemic) [Example 37, 3-cyclopentyl-3-(4-(2-(3-(oxazol-5-yl)phenylamino)pyrimidin-4-yl)-1H-pyrazol-1-yl)propanenitrile] |
| < 0.1 µM | Cc1cnc(Nc2cccc(-c3cnco3)c2)nc1-c1cnn(C(CC#N)C2CCCC2)c1 (racemic) [Example 84, 3-cyclopentyl-3-(4-(5-methyl-2-(3-(oxazol-5-yl)phenylamino)pyrimidin-4-yl)-1H-pyrazol-1-yl)propanenitrile] |
| < 0.1 µM | COc1cnc(Nc2cccc(C(=O)N3CCCC3)c2)nc1-c1cnn(C(CC#N)C2CC2)c1 (racemic) [Example 324, 3-cyclopropyl-3-[4-(5-methoxy-2-{[3-(pyrrolidin-1-ylcarbonyl)phenyl]amino}pyrimidin-4-yl)-1H-pyrazol-1-yl]propanenitrile] |
| < 0.1 µM | N#CCC1(n2cc(-c3ccnc(Nc4cccc(-c5cnco5)c4)n3)cn2)CC(C#N)C1 (single isomer, unassigned) [Example 343, 3-(cyanomethyl)-3-[4-(2-{[3-(1,3-oxazol-5-yl)phenyl]amino}pyrimidin-4-yl)-1H-pyrazol-1-yl]cyclobutanecarbonitrile] |
| < 0.1 µM | COc1cnc(Nc2ccc(C(=O)N3CCN(C)CC3)cc2)nc1-c1cnn(C(CC#N)C2CCCC2)c1 (racemic) [Example 304, 3-cyclopentyl-3-(4-(5-methoxy-2-(4-(4-methylpiperazine-1-carbonyl)phenylamino)pyrimidin-4-yl)-1H-pyrazol-1-yl)propanenitrile] |
| < 0.1 µM | COc1cnc(Nc2cccc(N3CCCS3(=O)=O)c2)nc1-c1cnn(C(CC#N)C2CC2)c1 (racemic) [Example 346, 3-cyclopropyl-3-[4-(2-{[3-(1,1-dioxidoisothiazolidin-2-yl)phenyl]amino}-5-methoxypyrimidin-4-yl)-1H-pyrazol-1-yl]propanenitrile] |
| < 0.1 µM | COc1cnc(Nc2cccc(C(=O)N3CC[C@H](C#N)C3)c2)nc1-c1cnn(C(CC#N)C2CC2)c1 (mixture of isomers) [Example 327, (3S)-1-[3-({4-[1-(2-cyano-1-cyclopropylethyl)-1H-pyrazol-4-yl]-5-methoxypyrimidin-2-yl}amino)benzoyl]pyrrolidine-3-carbonitrile] |
| < 0.1 µM | N#CCC(C1CCCC1)n1cc(-c2ccnc(Nc3cccc(C(=O)N4CCC(O)CC4)c3)n2)cn1 (racemic) [Example 111, 3-cyclopentyl-3-(4-(2-(3-(4-hydroxypiperidine-1-carbonyl)phenylamino)pyrimidin-4-yl)-1H-pyrazol-1-yl)propanenitrile] |
